Source: ChEMBL document CHEMBL3217635, “Pharmacological properties of indolone-N-oxides controlled by a bioreductive transformation in red blood cells?” (Medchemcomm, 2011)
Each block holds one molecule with its values, some of them ahead of it.

Key:
[1] = Metabolic stability in human RBC assessed as retention time of corresponding dihydroanalogue at 7.8 mg/ml by LC-MS analysis; type: ADME, cell-based; details: erythrocyte
[2] = Metabolic stability in human RBC assessed as retention time at 7.8 mg/ml by LC-MS analysis; type: ADME, cell-based; details: erythrocyte
Plasmodium falciparum = experiment: Antiplasmodial activity against Plasmodium falciparum FcB1; type: functional, organism-based
[3] = Half life in CD-1 mouse liver microsomes by LC-FL analysis; type: ADME
[4] = Selectivity index, ratio of CC50 for human MCF7 cells to IC50 for Plasmodium falciparum FcB1; type: functional
[5] = Cytotoxicity against human MCF7 cells; type: cell-based
[6] = Half life in mouse liver microsomes; type: ADME
[7] = Drug metabolism in human RBC assessed as 1-HH formation at 5 mM at 4 degC after 6 hrs by HPLC-FL analysis; type: ADME, cell-based; details: erythrocyte, 5000 µM
[8] = Drug metabolism in human heat-denaturated RBC; type: ADME, cell-based; details: erythrocyte
[9] = Drug metabolism in healthy human RBC assessed as 1-HH formation after 3 hrs; type: ADME, cell-based; details: erythrocyte
[10] = Drug metabolism in CDNB-treated human RBC assessed as 1-HH formation after 4 hrs by HPLC-FL analysis; type: ADME, cell-based; details: erythrocyte
[11] = Drug metabolism assessed as 1-HH metabolite formation in presence of human haemoglobin; type: ADME
[12] = Drug metabolism in CD-1 mouse liver microsomes assessed as 1-HH metabolite formation after 10 mins by LC-FL analysis; type: ADME
[13] = Drug metabolism assessed as 1-HH metabolite formation in presence of ferrous ion; type: physicochemical
[14] = Drug metabolism in human beta-thalassemic RBC assessed as 1-HH formation after 3 hrs; type: ADME, cell-based; details: erythrocyte
[15] = Drug metabolism in human RBC assessed as 1-HH formation at 5 mM at 37 degC after 6 hrs by HPLC-FL analysis; type: ADME, cell-based; details: erythrocyte, 5000 µM
[16] = Drug metabolism assessed as 1-HH metabolite formation in presence of haematin; type: physicochemical
[17] = Drug metabolism in human RBC assessed as 1-HH formation after 4 hrs by HPLC-FL analysis; type: ADME, cell-based; details: erythrocyte
[18] = Drug metabolism in cytoplasm of human RBC assessed as 1-HH metabolite formation after 3 hrs; type: ADME; details: erythrocytes
[19] = Drug metabolism in human phenylhydrazine-treated RBC assessed as 1-HH formation after 3 hrs; type: ADME, cell-based; details: erythrocyte
[20] = Drug metabolism assessed as 1-HH metabolite formation in presence of haemin; type: physicochemical
[21] = Drug metabolism in human RBC infected with late stage Plasmodium falciparum assessed as 1-HH formation after 3 hrs; type: ADME, cell-based; details: erythrocyte
[22] = Cellular uptake in human RBC assessed as intracellular level at 1 mg/ml measured immediately; type: ADME, cell-based; details: erythrocyte
[23] = Metabolic stability in human RBC assessed as increase in extracellular dihydroanalogue metabolite level at 1 mg/ml; type: ADME, cell-based; details: erythrocyte, TDE = time-dependent effect
[24] = Drug metabolism in human NEM-treated RBC assessed as 1-HH formation after 4 hrs by HPLC-FL analysis; type: ADME, cell-based; details: erythrocyte
[25] = Drug metabolism assessed as 1-HH metabolite formation after 3 hrs in presence of human haemoglobin; type: physicochemical
[26] = Drug metabolism assessed as 1-HH metabolite formation in presence of haemoglobin; type: physicochemical
[27] = Drug metabolism assessed as 1-HH metabolite formation after 3 hrs in presence of ghost fraction; type: physicochemical

Structure (SMILES): O=C1c2cc3c(cc2NC1(O)c1ccc(Cl)cc1)OCO3 (stereo not drawn)
- IC50 (Plasmodium falciparum): 1.03 µM
- half-life [3]: 10 min
- Ratio CC50/IC50 [4]: 66
- CC50 [5]: 68 µM

Structure (SMILES): COc1ccc2c(c1)C(=O)C(c1ccc(N(C)C)cc1)=[N+]2[O-]
- IC50 (Plasmodium falciparum): 0.003 µM
- Retention_time [1]: 8.2 min
- Retention_time [2]: 14 min
- half-life [6]: 6 min

Structure (SMILES): CCN(CC)CCCC(C)Nc1ccnc2cc(Cl)ccc12 (stereo not drawn) [CHLOROQUINE]
- CC50 [5]: 19 µM

Now from value to molecule, other results behind:

- Retention_time [1]: 9.9 min
- Retention_time [2]: 17.4 min
Structure (SMILES): COc1ccc2cc(C3=[N+]([O-])c4ccccc4C3=O)ccc2c1

- Retention_time [1]: 11.3 min
- Retention_time [2]: 23.5 min
Structure (SMILES): COc1ccc2c(c1)C(=O)C(c1ccc(Oc3ccccc3)cc1)=[N+]2[O-]

- Retention_time [1]: 11.2 min
- Retention_time [2]: 20.9 min
Structure (SMILES): O=C1C(c2ccc(Cl)c(Cl)c2)=[N+]([O-])c2ccccc21

- Retention_time [1]: 10.4 min
- Retention_time [2]: 22.6 min
Structure (SMILES): COc1ccc2c(c1)C(=O)C(c1ccc(Cl)c(C)c1)=[N+]2[O-]

- Drug metabolism [7]: Active
- Stability [8]: Stable
- Retention_time [1]: 9.6 min
- Drug metabolism [9]: Active
- Drug metabolism [10]: Not Active
- Retention_time [2]: 18.2 min
- Stability [11]: Stable
- Stability [12]: Stable
- half-life [3]: < 1 min
- Stability [13]: Stable
- Drug metabolism [14]: Active
- Drug metabolism [15]: Active
- Stability [16]: Stable
- Drug metabolism [17]: Active
- Drug metabolism [18]: Active
- Drug metabolism [19]: Active
- Stability [20]: Stable
- Drug metabolism [21]: Active
- Drug uptake [22]: Active
- Drug metabolism [23]: tde
- Drug metabolism [24]: Not Active
- Stability [25]: Stable
- Stability [26]: Stable
- Stability [27]: Stable
Structure (SMILES): O=C1C(c2ccc(Cl)cc2)=[N+]([O-])c2cc3c(cc21)OCO3
- Ratio CC50/IC50 [4]: 264
- CC50 [5]: 23 µM
